Test results published in US20190119284A1, “ErbB Inhibitors and Uses Thereof” (The Regents of the University of California, priority 2016, published 2019).
Where two headings read alike, the source gives them in different places.

Legend:
[1] = Mouse Liver Microsome stability assay; type: in vitro ADME; settings: mouse liver microsomes
HER2+/2VE Ba/F3 line = assay: Ba/F3 proliferation assay, HER2+/2VE; type: cell-based; settings: Tables 7 and 8
Protocol: (§1) Proliferation Assays. For adherent cell lines, cells were plated onto opaque white 96 well plates (Greiner cat #655083) and allowed to adhere overnight. The following day media was changed to fresh media that contained either DMSO or the indicated concentration of drug plus NRG (50 ng/mL final concentration) as indicated. Plates were incubated at 37° C. for 72 h and proliferation was read out using Cell Titer Glo (Promega) according to the manufacturer's protocol. For Ba/F3 cell proliferation, cells, drug dilution, and any necessary growth factors (10 ng/mL IL-3 or 6.25 ng/mL NRG) were combined in a well of a 96 well plate. Plates were incubated at 37° C. for 48 h and proliferation was read out using Cell Titer Glo according to the manufacturer's protocol. For all normalized assays, proliferation was normalized to the DMSO control condition. All graphs were plotted in GraphPad Prism 6 and fit with a non-linear regression of the log(inhibitor) vs response with a variable slope where shown. All graphs are averages (+/−standard deviation) of biological triplicates each performed in technical triplicate unless otherwise noted. If only one biological replicate was performed standard deviations were derived from the technical replicates.

Axl+ Ba/F3 cells = molecular target: T1, Axl+ Ba/F3 cells (Homo sapiens, UniProt P30530); assay: Ba/F3 proliferation assay, Axl+; type: cell-based; settings: Tables 7 and 8; read-out: Ba/F3 line IC50, Axl+
T1 sequence (P30530 1-894): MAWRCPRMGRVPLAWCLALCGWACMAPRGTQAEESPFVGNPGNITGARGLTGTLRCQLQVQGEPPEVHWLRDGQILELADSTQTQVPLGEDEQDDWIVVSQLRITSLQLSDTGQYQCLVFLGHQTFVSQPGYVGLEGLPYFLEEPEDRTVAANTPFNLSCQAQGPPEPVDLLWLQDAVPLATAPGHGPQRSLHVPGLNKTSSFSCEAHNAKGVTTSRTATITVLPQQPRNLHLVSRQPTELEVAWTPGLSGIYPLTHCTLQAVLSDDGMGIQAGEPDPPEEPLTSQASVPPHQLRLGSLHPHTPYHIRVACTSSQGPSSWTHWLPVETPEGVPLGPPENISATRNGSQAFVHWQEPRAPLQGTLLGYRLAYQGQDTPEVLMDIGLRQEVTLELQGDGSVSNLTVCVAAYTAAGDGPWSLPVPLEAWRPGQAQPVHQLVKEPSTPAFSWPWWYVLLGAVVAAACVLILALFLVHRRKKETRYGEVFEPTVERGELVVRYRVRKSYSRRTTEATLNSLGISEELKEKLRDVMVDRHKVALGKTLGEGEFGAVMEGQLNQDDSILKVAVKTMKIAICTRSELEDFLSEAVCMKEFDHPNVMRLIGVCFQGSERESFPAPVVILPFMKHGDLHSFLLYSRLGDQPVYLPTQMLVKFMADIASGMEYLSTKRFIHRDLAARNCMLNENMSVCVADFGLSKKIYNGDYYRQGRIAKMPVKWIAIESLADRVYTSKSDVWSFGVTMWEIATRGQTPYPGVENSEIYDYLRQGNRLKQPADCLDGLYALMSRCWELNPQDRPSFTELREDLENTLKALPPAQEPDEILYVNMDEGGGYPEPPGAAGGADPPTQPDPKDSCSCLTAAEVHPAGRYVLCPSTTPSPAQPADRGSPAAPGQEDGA
Protocol: (§2) To validate the screen and test the effectiveness of counter-screening with either the same 2YF/3wt Ba/F3 cell line or the parental Ba/F3's in the presence of IL-3 to remove cytotoxic primary hits, we first tested a panel of kinase inhibitors with established mechanisms of action.
For Axl+ cells, the transduced cells were spun down at 500×g for 5 min and resuspended in media supplemented with 10 ng/mL IL-3 and 3 μg/mL puromycin (Invitrogen). Cells were maintained in these conditions for 7 days, passaging as required. After 7 days the cells were spun down, washed with fresh media, and then suspended in IL-3 free media. The cells were maintained in these conditions for 2 weeks to select for an IL-3 independent population of Axl+ driven cells.
as §1

[2] = molecular target: 2YF/3wt + NRG Ba/F3 cells (HER2YF/HER3wt) (Homo sapiens, UniProt P04626, Y1005F/Y1023F/Y1112F/Y1127F/Y1139F/Y1196F/Y1221F/Y1222F/Y1248F, cells depend on it); assay: Ba/F3 proliferation assay, 2YF/3wt + NRG; type: cell-based; settings: Tables 7 and 8; read-out: Ba/F3 line IC50, HER2YF/HER3 + NRG
Description: Ba/F3 cells are normally dependent on IL-3 signaling for their proliferation and survival, but can be made dependent on introduced oncogenic signals. We sequentially selected transduced Ba/F3 cells for populations stably expressing HER3 and then HER2. To ensure that all of the proliferative signal could be attributed to HER2/HER3 heterodimers, rather than HER2 homodimers, the 9 C-terminal tyrosines in HER2 were mutated to phenylalanine (HER2YF). We then withdrew IL-3 and supplemented the media with NRG to select for NRG dependent HER2YF/HER3wt cells (2YF/3wt).
For the 2YF/3wt cells, the parental cells were first transduced with HER3 according to the protocol above and were then spun down at 500×g for 5 min and re-suspended in media supplemented with 10 ng/mL IL-3 and 3 μg/mL puromycin (Invitrogen). Cells were maintained in these conditions for seven days, passaging as required. After seven days the cells were spun down, washed with fresh media, and then used for a subsequent round of transduction according to the protocol above with HER2YF virus. […] The cells were maintained in these conditions for seven days, passaging as required. After seven days the cells were spun down, washed with fresh media, and then suspended in media supplemented with 10 ng/mL of NRG. Cells were maintained in these conditions for seven days to select for a NRG dependent population of 2YF/3wt Ba/F3 cells that were then maintained as described above. The same protocol was used for the 2YF-L755S/3wt, 2YF-YVMA/3wt, and 2YF-VC/3wt cell lines using the indicated constructs.
Proliferation Assays. […] The following day media was changed to fresh media that contained either DMSO or the indicated concentration of drug plus NRG (50 ng/mL final concentration) as indicated. […] For all normalized assays, proliferation was normalized to the DMSO control condition. All graphs were plotted in GraphPad Prism 6 and fit with a non-linear regression of the log(inhibitor) vs response with a variable slope where shown. All graphs are averages (+/−standard deviation) of biological triplicates each performed in technical triplicate unless otherwise noted. If only one biological replicate was performed standard deviations were derived from the technical replicates.

[3] = tested on: parental Ba/F3 cells + IL-3; assay: Ba/F3 proliferation assay, Parental + IL-3; type: cell-based; settings: Tables 7 and 8, read-out: Ba/F3 line IC50, Parental + IL-3
Protocol: as §2, §1

2YF/3wt + NRG Ba/F3 cells (HER2YF/HER3wt), sequence (P04626 whole entry Y1005F/Y1023F/Y1112F/Y1127F/Y1139F/Y1196F/Y1221F/Y1222F/Y1248F): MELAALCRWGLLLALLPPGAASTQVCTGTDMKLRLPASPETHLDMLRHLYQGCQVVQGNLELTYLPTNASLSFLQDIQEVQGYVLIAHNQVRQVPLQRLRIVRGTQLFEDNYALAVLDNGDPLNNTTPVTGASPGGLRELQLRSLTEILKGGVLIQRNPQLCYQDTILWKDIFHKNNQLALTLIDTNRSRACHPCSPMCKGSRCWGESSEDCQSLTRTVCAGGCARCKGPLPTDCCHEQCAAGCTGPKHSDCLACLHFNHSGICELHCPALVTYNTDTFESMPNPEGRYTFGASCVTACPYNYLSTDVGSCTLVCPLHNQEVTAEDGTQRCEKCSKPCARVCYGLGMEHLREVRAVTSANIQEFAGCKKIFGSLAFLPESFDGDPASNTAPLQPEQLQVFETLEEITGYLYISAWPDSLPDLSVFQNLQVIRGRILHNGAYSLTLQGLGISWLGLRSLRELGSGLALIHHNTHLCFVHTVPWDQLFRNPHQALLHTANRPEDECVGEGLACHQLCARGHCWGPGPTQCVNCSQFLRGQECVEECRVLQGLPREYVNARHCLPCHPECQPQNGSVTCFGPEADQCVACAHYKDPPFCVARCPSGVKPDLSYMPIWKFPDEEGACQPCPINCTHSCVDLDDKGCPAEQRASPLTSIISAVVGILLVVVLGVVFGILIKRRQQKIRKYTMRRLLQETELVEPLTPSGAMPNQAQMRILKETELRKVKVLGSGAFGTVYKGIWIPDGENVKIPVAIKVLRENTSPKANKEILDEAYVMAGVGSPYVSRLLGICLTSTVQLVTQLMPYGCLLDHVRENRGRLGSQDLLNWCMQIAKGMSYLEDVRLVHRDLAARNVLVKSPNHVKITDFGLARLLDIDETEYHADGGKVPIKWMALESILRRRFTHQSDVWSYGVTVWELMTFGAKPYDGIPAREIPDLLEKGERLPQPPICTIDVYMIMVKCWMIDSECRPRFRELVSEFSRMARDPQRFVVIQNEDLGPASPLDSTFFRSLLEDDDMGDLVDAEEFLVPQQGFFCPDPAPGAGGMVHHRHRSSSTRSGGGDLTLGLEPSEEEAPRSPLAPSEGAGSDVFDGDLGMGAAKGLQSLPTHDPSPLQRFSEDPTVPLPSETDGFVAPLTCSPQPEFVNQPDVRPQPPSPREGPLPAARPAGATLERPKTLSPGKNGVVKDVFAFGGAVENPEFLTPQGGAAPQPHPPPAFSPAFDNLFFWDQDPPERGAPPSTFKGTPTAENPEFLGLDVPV

Structure (SMILES) | WuXi Microsomal stability (Mouse Extraction Ratio) [1] | IC50 (HER2+/2VE Ba/F3 line; Mus musculus, BaF3) | GI50 (Axl+ Ba/F3 cells) | GI50 [2] | IC50 ([3]; Mus musculus, BaF3) | IC50 (HER2+/2VE Ba/F3 line) | IC50 [3]
COc1ccc(-c2ccccc2F)cc1Nc1ncnc2[nH]nc(-c3cc[nH]n3)c12 [8168A] | 0.8 | – | – | – | – | – | –
c1ccc(-c2cccc(Nc3ncnc4[nH]nc(-c5ccccc5)c34)c2)cc1 [Cmpd 186A] | – | > 10000 nM | > 10000 nM | > 10000 nM | > 10000 nM | – | –
CC(=O)c1cccc(-c2n[nH]c3ncnc(Nc4cccc(-c5ccccc5)c4)c23)c1 [Cmpd 186B] | – | > 10000 nM | > 10000 nM | > 10000 nM | > 10000 nM | – | –
COc1ccccc1Nc1ncnc2[nH]nc(-c3ccccc3)c12 [Cmpd 187A] | – | > 10000 nM | > 10000 nM | > 10000 nM | > 10000 nM | – | –
COc1ccccc1Nc1ncnc2[nH]nc(-c3cccc(C(C)=O)c3)c12 [Cmpd 187B] | – | > 10000 nM | > 10000 nM | > 10000 nM | > 10000 nM | – | –
c1ccc(-c2ccc(Nc3ncnc4[nH]nc(-c5ccccc5)c34)cc2)cc1 [Cmpd 188A] | – | > 10000 nM | > 10000 nM | > 10000 nM | > 10000 nM | – | –
CC(=O)c1cccc(-c2n[nH]c3ncnc(Nc4ccc(-c5ccccc5)cc4)c23)c1 [Cmpd 188B] | – | > 10000 nM | > 10000 nM | > 10000 nM | > 10000 nM | – | –
COc1ccc(-c2ccccc2)cc1Nc1ncnc2[nH]nc(-c3ccccc3F)c12 [Cmpd 189A] | – | 613 nM | 362 nM | 361 nM | 1120 nM | – | –
COc1ccc(-c2n[nH]c3ncnc(Nc4cc(-c5ccccc5)ccc4OC)c23)cc1 [Cmpd 189B] | – | – | > 10000 nM | > 10000 nM | – | > 10000 nM | > 10000 nM
COc1cccc(-c2n[nH]c3ncnc(Nc4cc(-c5ccccc5)ccc4OC)c23)c1 [Cmpd 190A] | – | 229 nM | 171 nM | 86.8 nM | 450 nM | – | –
COc1ccc(-c2ccccc2)cc1Nc1ncnc2[nH]nc(-c3ccc4ccccc4c3)c12 [Cmpd 190C] | – | 1840 nM | 643 nM | 862 nM | 1510 nM | – | –
COc1ccc(C(C)(C)C)cc1Nc1ncnc2[nH]nc(-c3cccc(C(C)=O)c3)c12 [Cmpd 190D] | – | > 10000 nM | > 10000 nM | > 10000 nM | > 10000 nM | – | –
CC(=O)c1cccc(-c2n[nH]c3ncnc(Nc4cc(-c5ccccc5)ccc4O)c23)c1 [Cmpd 191A] | – | 769 nM | 506 nM | 150 nM | 2910 nM | – | –
COc1ccc(-c2ccccc2)cc1Nc1ncnc2[nH]nc(-c3cccc4ccccc34)c12 [Cmpd 191B] | – | > 1000 nM | > 1000 nM | > 1000 nM | > 1000 nM | – | –
COc1ccc(-c2ccccc2)cc1Nc1ncnc2[nH]nc(-c3ccc(C#N)cc3)c12 [Cmpd 191D] | – | 1110 nM | 1010 nM | 884 nM | 1740 nM | – | –
COc1ccc(-c2ccccc2)cc1Nc1ncnc2[nH]nc(-c3ccc(C(F)(F)F)cc3)c12 [Cmpd 191E] | – | > 10000 nM | > 10000 nM | > 10000 nM | > 10000 nM | – | –
COc1ccc(-c2ccccc2)cc1Nc1ncnc2[nH]nc(-c3ccsc3)c12 [Cmpd 191F] | – | 1700 nM | 2150 nM | 376 nM | 2510 nM | – | –
COc1ccc(-c2ccccc2)cc1Nc1ncnc2[nH]nc(-c3ccc(C(C)=O)cc3)c12 [Cmpd 191H] | – | > 10000 nM | > 10000 nM | > 10000 nM | > 10000 nM | – | –
COc1ccc(-c2ccccc2)cc1Nc1ncnc2[nH]nc(-c3cccc(C(C)=O)c3)c12 [compound 185, 1-(3-(4-((4-methoxy-[1,1′-biphenyl]-3-yl)amino)-1H-pyrazolo[3,4-d]pyrimidin-3-yl)phenyl)ethanone] | – | 243 nM | 257 nM | 148 nM | 1490 nM | – | –
COc1cc(C)c(-c2ccccc2)cc1Nc1ncnc2[nH]nc(-c3cc[nH]n3)c12 [compound 8134] | 0.7 | – | – | – | – | – | –
CN(C)c1ccc(-c2ccccc2)cc1Nc1ncnc2[nH]nc(-c3cc[nH]n3)c12 [compound 8164] | 0.9 | – | – | – | – | – | –
COc1ncc(-c2ccccc2)cc1Nc1ncnc2[nH]nc(-c3cc[nH]n3)c12 [compound 8177] | 0.8 | – | – | – | – | – | –
FC(F)Oc1ccc(-c2ccccc2)cc1Nc1ncnc2[nH]nc(-c3cc[nH]n3)c12 [compound 8179] | 0.6 | – | – | – | – | – | –
COc1ccc(-c2cnccn2)cc1Nc1ncnc2[nH]nc(-c3cc[nH]n3)c12 [compound 8184] | 0.9 | – | – | – | – | – | –
